Results from publication PMC3141555, “Neuroprotective effect of a new DJ-1-binding compound against neurodegeneration in Parkinson's disease and stroke model rats” (2011).

T1: DJ-1 (Homo sapiens, UniProt Q99497)
T1 construct: gene PARK7; recombinant DJ-1
T1 sequence (Q99497 2-189): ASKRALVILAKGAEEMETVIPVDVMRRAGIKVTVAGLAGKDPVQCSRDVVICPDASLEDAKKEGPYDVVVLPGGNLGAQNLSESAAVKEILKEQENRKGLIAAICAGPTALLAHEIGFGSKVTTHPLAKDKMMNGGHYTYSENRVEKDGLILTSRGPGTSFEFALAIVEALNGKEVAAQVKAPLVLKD

T2: DJ-1 (human (endogenous in SH-SY5Y)), Q99497
T2 chain: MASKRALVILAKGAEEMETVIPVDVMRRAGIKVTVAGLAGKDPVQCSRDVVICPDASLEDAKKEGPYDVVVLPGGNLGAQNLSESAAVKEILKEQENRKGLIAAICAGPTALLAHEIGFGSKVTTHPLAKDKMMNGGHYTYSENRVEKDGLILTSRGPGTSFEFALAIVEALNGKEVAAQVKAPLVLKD

B1: DJ-1, Q99497 1-189 (natural protein)
chain: T2 chain

Experiments:
[1] = target: T1, DJ-1; test: quartz crystal microbalance (compound fixed on sensor chip, recombinant DJ-1 applied); assay type: binding
[2] = target: T2, DJ-1 (human (endogenous in SH-SY5Y)), …; test: cross-linking; SH-SY5Y cells incubated with 1 uM compound-23 or compound-B for 20 hours, treated with various amounts of H2O2 for 3 hours, then 0.5 mM DSS (or DMSO) for 30 min; extracts analysed by Western blotting with an anti-DJ-1 antibody; details: remark: other sources report otherwise

Molecule | Kd [1] [nM] | stoichiometry N [2]
COc1cc(C(=O)Nc2ccc(-c3cn4cccc(C)c4n3)cc2)cc(OC)c1OC [compound-23, N-[4-(8-methyl(4-hydroimidazo[1,2-a]pyridin-2-yl))phenyl](3,4,5-trimethoxyphenyl)carboxamide] | 103 | 
B1 |  | 2
